This is an account of results in patent US20030208035A1, “Antifungal and/or antibacterial peptides, preparation methods, compositions containing same and methods of treating mammals and/or plants” (priority 2000, published 2003).

Bridges are numbered along the chain shown (N, C = ends). Where no end group is shown, it is not given here. A value given as a limit tells only on which side of the number the result lay.

Series [1] has as its system C. parapsilosis. In kind it is cell-based. On the procedure:
(§1) Candida yeasts (C. albicans, C. glabrata, C. dubliensis, C. tropicalis, C. kefyr, C. krusei and C. parapsilosis—donated by Dr. H. Koenig, Hôpital Civil, Strasbourg), fluconazole-resistant C. albicans (n^o245962, n^o2332, n^o246335 and n^o3552, donated by Drs. J.Meis and J. Mouton, University Hospital, Microbiology Department, Nijmegen, Netherlands), and Cryptoccocus neoformans (donated by Dr. H. Koenig, Hôpital Civil, Strasbourg) were seeded on Sabouraud-Cloramphenicol Agar slant gelose (Biomerieux) and left to incubate for 24 h at 30° C. (Candida sp.) and for 72 h at 37° C. (Cryptoccocus neoformans).
(§2) Some yeast colonies were placed in suspension in liquid Sabouraud medium (Biomerieux) to obtain a final concentration of 0.1 OD at 600 nm corresponding to 2.5.10^6 yeasts/ml.
(§3) The yeast suspension was adjusted to 5.10^3 yeast/ml in Sabouraud medium.
(§4) 100 μl of peptide dilutions (concentration of 50 with 0.097 μg/ml peptide) were deposited in microtitration plates. After adding […] of yeast suspension with 5.10^3 yeast/ml i.e. 500 yeasts, the test plates were incubated 24 h at 30° C. (Candida) under slow shaking or 72 h at 37° C. (Cryptoccocus).
(§5) Determination of minimal inhibiting concentrations (MIC) was made by measuring absorbency at 600 nm using a spectrophotometer-microtitration plate reader. The MIC score was set at a growth inhibition rate of 50%.

Series [2] concerns Cryptoccocus neoformans. The format is cell-based. Conditions: 72 h. As for the experimental part: as §1, §2, §3, §4, §5
In series [3] the test system is C. krusei. In kind it is cell-based. On the procedure: as §1, §2, §3, §4, §5
The test system of series [4] is C. kefyr. The format is cell-based. On the procedure:
as §1, §2, §3, §4, §5

The subject of series [5] is C. tropicalis. In kind it is cell-based. As for the experimental part: as §1, §2, §3, §4, §5
Series [6] concerns C. dubliensis. The format is cell-based. As for the experimental part:
as §1, §2, §3, §4, §5

Series [7] relates to C. glabrata. The format is cell-based. On the procedure: as §1, §2, §3, §4, §5
The subject of series [8] is A. fumigatus. The format is cell-based. Conditions: 48 h. On the procedure:
The antifungal activity was detected by a growth inhibition test in a liquid medium.
The filamentous fungi (A. fumigatus, A. flavus and A. terreus, donated by Dr. H. Koenig, Hôpital Civil, Strasbourg; and S. prolificans and F. solani donated by Drs. J. Meis and J. Mouton, University hospital, Microbioolgy Department, Nijmegen, Netherlands) were seeded on Malt-Agar slant gelose (Biomerieux) and incubated 7 days at 37° C.
The spores were then collected with 10 ml YPG medium containing 0.05% Tween 20 and filtered through a gauze. The spores were centrifuged 10 min at 1700 rpm, the residue was collected in YPG (1 g Yeast extract, 1 g Peptone, 3 g Glucose per 1 l).
The suspension was counted with a Coverslide and adjusted to 10^4 spores/ml.
100 μl of peptide dilutions (concentration of 50 with 0.097 μg/ml peptide) were deposited in microtitration plates. 100 μl with 10^4 spores/ml of filamentous fungi, i.e. 1000 spores, were then added.
The test plates were incubated 48 h at 37° C.
Determination of minimum inhibiting concentrations (MIC) was made by observing well cover rate. The MIC score was set at 50% well covering.

A short description of series [9]: Acute toxicity study in mice. The note with it: for acute toxicity: mice, intravenous, in 0.9% NaCl, injections of 30 mg/kg repeated at 30-minute intervals, 3 times daily for 3 days. In kind it is in vivo. As for the experimental part: […] The peptides were solubilised in a 0.9% NaCl solution; the injected volume was 150 μl injected in 45 seconds via the lateral tail vein.

Series [10] relates to fluconazole-resistant C. albicans. Kind of series: microbe, parasite or virus in culture. The format is cell-based, Candida albicans. The note with it: fluconazole-resistant. On the procedure:
as §1, §2, §3, §4, §5

For series [11], the system named is Scedosporium inflatum (FSSP 7908 strain). Kind of series: Scedosporium inflatum infected model (invasive scedosporiosis), continuous infusion by osmotic pumps. Conditions: for 50% mortality, post-infection day: controls day 7. The format is in vivo, mice. On the procedure:
Swiss OF1 mice weighing 22 g were infected by intravenous route (i.v.) with a lethal dose of Scedosporium inflatum (FSSP 7908 strain cultured on Malt Agar gelose for 7 days at 37° C.). The infecting dose was 7.10^6 spores per mouse, injected in a volume of 100 μl via the lateral tail vein.
Peptides pEM35 and pEM51 were administered continuously using ALZET 1003D osmotic pumps (flow rate: 0.97 μl/h; volume: 93 μl; infusion time: 4 days) and 1007D pumps (flow rate: 0.47 μl/h; volume: 100 μl; infusion time: 8 and half days) with intraperitoneal insertion
Groups of 8 infected mice were treated either with:
c) with pEM51 delivered i.p. by 1007D pumps at a dose of 30 mg/kg for 8 days, corresponding to a theoretical equilibrium plasma concentration of 0.3 μg/ml;
d) with pEM51 delivered i.p. by 1003D pumps at a dose of 60 mg/kg for 4 days, corresponding to a theoretical equilibrium plasma concentration of 0.6 μg/ml;
e) with pEM35 delivered i.p. by 1003D pumps at a dose of 35 mg/kg for 4 days, corresponding to a theoretical equilibrium plasma concentration of 0.35 μg/ml.
In this model of invasive scedosporiosis, inoculation of a dose of 7.10^6 spores of Scedosporium inflatum was 50% lethal on post-infection day 7. The first death occurred at 5 days and 6 days respectively after infection for the control mice group (infected, non-treated) and the placebo group (infected and with Alzet pumps). 100% mortality was observed on day 11 in the control group and 75% mortality on day 20 for the placebo group. The state of health of the mice deteriorated rapidly on and after post-infection day 3 with a morbidity score for these two groups of 28/40 and 34/40 on day 3 and 6/40 and 7/40 on post-infection day 7. Signs of encephalitis occurred on post-infection day 4.

Series [12] relates to C. albicans. In kind it is cell-based, Candida albicans. The note with it: 24 h. As for the experimental part:
as §1, §2, §3, §4, §5

Turning to “DKLIGSCVWGAVNYTSNCNAECKRRGYKGGHCGSFLNVNCWCQT (disulfide 7-32, 18-40, 22-42 (inferred)) [pEM46]”, the MIC is 0.78 µg/mL in [1]; 6.25 µg/mL in series [2]; 1.56 µg/mL in series [3]; greater than 25 µg/mL in series [4]; 3.125 µg/mL in series [5]; 3.125 µg/mL in series [6]. Besides, the MIC in series [7] was greater than 25 µg/mL; in series [8] it was 3.125 µg/mL.
Consider “DKLIGSCVWGAVNYTSNCRAECKRRGYKGGHCGSFANVNCWCET (disulfide 7-32, 18-40, 22-42 (inferred)) [pEM51]”, for which, in [9], the acute toxicity entry is on record as “no acute toxicity was observed”. Also, the “delayed growth (weight) on the day after the injection” value is “approximately 1 g” in series [9] (single i.v. dose 200 mg/kg), “approximately 1 g” in series [9] (single i.v. dose 300 mg/kg) and “approximately 2 g” in series [9] (single i.v. dose 400 mg/kg). Moreover, the MIC in series [2] is 1.56 µg/mL; in series [3], 1.56 µg/mL; in series [4], greater than 25 µg/mL; in series [5], 3.125 µg/mL; in series [7], greater than 25 µg/mL; in series [10] it was 1.56 µg/mL. The “therapeutic efficacy in terms of survival” value in series [11] (30 mg/kg for 8 days) is recorded as “very good therapeutic efficacy”. The “delay of onset of the first death” value was 9 days in series [11] (30 mg/kg for 8 days i.p. by 1007D pumps, 7.10^6 spores i.v., 8 mice) and 4 days in [11] (60 mg/kg for 4 days i.p. by 1003D pumps). In addition, the “mice alive on day 20 (out of 8)” value amounted to 5 mice in series [11] (30 mg/kg for 8 days i.p. pumps) and 3 mice in [11] (60 mg/kg for 4 days i.p. pumps). In addition, the “morbidity score post-infection day 5 until day 14” value in series [11] (30 mg/kg for 8 days i.p. pumps) is reported as 24/40. In addition, the “morbidity score post-infection day 20” value in series [11] (30 mg/kg for 8 days i.p. pumps) is reported as 11/40. Besides, the “morbidity score post-infection day 4” value in series [11] (30 mg/kg for 8 days i.p. pumps, 40 = all 8 mice healthy) is recorded as 28/40. Also, in series [11] (60 mg/kg for 4 days i.p. pumps), the “delay of 50% mortality in relation to control and placebo groups” value was 5 days. Besides, in series [11] (60 mg/kg for 4 days i.p. pumps), the “morbidity score post-infection day 5” value is reported as 30/40. The “morbidity score post-infection day 14” value in series [11] (60 mg/kg for 4 days i.p. pumps) is listed as 6/40. Moreover, in series [11] (60 mg/kg for 4 days i.p. pumps), the “50% mortality, post-infection day” value was determined as 12 days.
On to “DKLIGSCVWGAVNYTSNCNAECKRRGYKGGHCGSFANVNCWCQT (disulfide 7-32, 18-40, 22-42 (inferred)) [pEM31]”, for which the MIC is 1.56 µg/mL in [1]; 12.5 µg/mL in [2]; 3.125 µg/mL in series [3]; greater than 25 µg/mL in series [4]; 6.25 µg/mL in series [5]; 6.25 µg/mL in [6]. This sequence also yielded an MIC in series [7] greater than 25 µg/mL.
For the sequence “DKLIGSCVWGAVNYTSNCNAECKRRGYKGGHCGSFLNVNCWCET (disulfide 7-32, 18-40, 22-42 (inferred)) [pEM35]”, the acute toxicity entry in series [9] is listed as “no acute toxicity was observed”. Moreover, the “delayed growth (weight) on the day after the injection” value in [9] (single i.v. dose 200 mg/kg) and in series [9] (single i.v. dose 400 mg/kg) was “approximately 1 g” each time. In addition, the MIC in [12] was 1.56 µg/mL; in series [2], 6.25 µg/mL; in series [3], 1.56 µg/mL; in [4], greater than 25 µg/mL; in series [5], 1.56 µg/mL; in [7], greater than 25 µg/mL. In [8], this sequence yielded an MIC of 6.25 µg/mL. Moreover, the “delay of onset of the first death” value in series [11] (35 mg/kg for 4 days i.p. by 1003D pumps) worked out at 5 days. In addition, in series [11] (35 mg/kg for 4 days i.p. pumps), the “delay of 50% mortality relative to control and placebo groups” value turned out to be 8 days. Besides, the “mice alive on day 20 (out of 8)” value in series [11] (35 mg/kg for 4 days i.p. pumps) is 1 mouse. Besides, the “morbidity score post-infection day 5” value in [11] (35 mg/kg for 4 days i.p. pumps) is 28/40. For the same sequence, the “morbidity score post-infection day 15” value in series [11] (35 mg/kg for 4 days i.p. pumps) is listed as 8/40. In series [11] (35 mg/kg for 4 days i.p. pumps), the “50% mortality, post-infection day” value worked out at 15 days.
